Like-named read-outs stand apart in the source and are kept apart here.
Experiments:
tumor = conditions: preclinical experimental data; cited from earlier work
PARP7 = target: T1, PARP7 (Homo sapiens, UniProt Q7Z3E1); test: Test of inhibitory activity against PARP7 enzyme (PARP7 FLAG-tag, Probe A, time-resolved fluorescence); assay type: biochemical; conditions: PARP7 12 nM, Probe A 2 nM, 1 hr room temperature
T1 construct: purchased BPS 80527
T1 sequence (Q7Z3E1 1-657): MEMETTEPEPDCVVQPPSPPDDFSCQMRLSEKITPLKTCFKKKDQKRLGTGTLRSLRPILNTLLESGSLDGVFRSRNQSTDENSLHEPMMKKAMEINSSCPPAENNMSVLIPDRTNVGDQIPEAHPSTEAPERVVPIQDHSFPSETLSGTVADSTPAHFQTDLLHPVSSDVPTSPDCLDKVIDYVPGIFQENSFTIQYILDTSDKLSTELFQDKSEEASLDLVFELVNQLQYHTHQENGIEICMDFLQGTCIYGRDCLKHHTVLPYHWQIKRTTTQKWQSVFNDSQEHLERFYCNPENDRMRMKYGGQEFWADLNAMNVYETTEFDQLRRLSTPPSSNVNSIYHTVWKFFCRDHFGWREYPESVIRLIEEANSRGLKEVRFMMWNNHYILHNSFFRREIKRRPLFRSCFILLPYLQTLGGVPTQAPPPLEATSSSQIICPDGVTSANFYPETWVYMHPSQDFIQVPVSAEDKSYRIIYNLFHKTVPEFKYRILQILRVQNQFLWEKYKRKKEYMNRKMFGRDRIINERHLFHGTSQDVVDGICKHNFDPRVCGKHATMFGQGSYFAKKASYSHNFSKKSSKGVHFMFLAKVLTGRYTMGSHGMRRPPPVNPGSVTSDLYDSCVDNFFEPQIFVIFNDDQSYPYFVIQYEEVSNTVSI

NCI-H1373 cells = test: Cell proliferation inhibition assay (CTG method); assay type: cell-based, human; conditions: NCI-H1373 cells, 6 days incubation, CTG method, read-out: IC50 (nM) for NCI-H1373 cell viability

Row | Structure (SMILES) | anti-tumor growth effect (tumor) | tumor-specific adaptive immune memory (tumor) | IC50 (PARP7) | IC50 (NCI-H1373 cells; Homo sapiens, NCI-H1373, 144 h) | IC50 (NCI-H1373 cells)
1 | C[C@@H](COCCC(=O)N1CCN(c2ncc(C(F)(F)F)cn2)CC1)Nc1cn[nH]c(=O)c1C(F)(F)F [RBN-2397] | potent anti-tumor growth effect increasing in a dose-dependent manner | induces tumor-specific adaptive immune memory |  |  | 
2 | C[C@@H](COCCC(=O)N1CCN2c3ncc(C(F)(F)F)cc3CC[C@H]2C1)Nc1cn[nH]c(=O)c1C(F)(F)F (single isomer, unassigned) [Compound 45] |  |  | < 10 nM | < 100 nM | 
3 | CC1SC[C@H]2CN(C(=O)CCOC[C@H](C)Nc3cn[nH]c(=O)c3C(F)(F)F)CCN2c2ncc(C(F)(F)F)cc21 (stereo partly drawn) [Compound 27] |  |  | < 10 nM | 500 to 5000 nM | 
4 | CC(COCC(O)C(=O)N1CCN2c3ncc(C(F)(F)F)cc3COCC2C1)Nc1cn[nH]c(=O)c1C(F)(F)F (single isomer, unassigned) [Compound 56] |  |  | < 10 nM |  | 100 to 500 nM
5 | C[C@@H](COCCC(=O)N1CCN2c3ncc(C(F)(F)F)cc3N(CCO)C(=O)[C@@H]2C1)Nc1cn[nH]c(=O)c1C(F)(F)F [Compound 41, (S)-5-(2-hydroxyethyl)-8-(3-((S)-2-((6-oxo-5-(trifluoromethyl)-1,6-dihydropyridazin-4-yl)amino)propoxy)propionyl)-3-(trifluoromethyl)-7,8,9,10-tetrahydro-5H-pyrazino[1,2-a]pyrido[3,2-e]pyrazino-6(6aH)-one] |  |  | < 10 nM | 500 to 5000 nM | 
6 | C[C@@H](COCCC(=O)N1CCN2c3ncc(C(F)(F)F)cc3NCC[C@H]2C1)Nc1cn[nH]c(=O)c1C(F)(F)F [Compound 35, 5-(((S)-1-(3-oxo-3-((S)-3-(trifluoromethyl)-6,7,7a, 8,10,11-hexahydropyrazino[1,2-d]pyrido[3,2-b][1,4]diazepine-9(5H)-yl)propoxy)prop-2-yl)amino)-4-(trifluoromethyl)pyridazin-3(2H)-one] |  |  | < 10 nM | < 100 nM | 
7 | C[C@@H](COCCC(=O)N1CCN2c3ncc(C(F)(F)F)cc3C(=O)N(C)C[C@H]2C1)Nc1cn[nH]c(=O)c1C(F)(F)F [Compound 42, (S)-6-methyl-9-(3-((S)-2-((6-oxo-5-(trifluoromethyl)-1,6-dihydropyridazin-4-yl)amino)propoxy)propionyl)-3-(trifluoromethyl)-7,7a, 8,9,10,11-hexahydropyrazino[1,2-a]pyrido[3,2-f][1,4]diazepan-5(6H)-one] |  |  | < 10 nM | 500 to 5000 nM | 
8 | C[C@@H](COCCC(=O)N1CCN2c3ncc(C(F)(F)F)cc3N(C)CCC2C1)Nc1cn[nH]c(=O)c1C(F)(F)F (stereo partly drawn) [Compound 43, 5-((((2S)-1-(3-(5-methyl-3-(trifluoromethyl))-6,7,7a, 8,10,11-hexahydropyrazino[1,2-d]pyrido[3,2-b] [1,4]diazepine-9(5H)-yl)-3-oxopropoxy)prop-2-yl)amino)-4-(trifluoromethyl)pyridazin-3(2H)-one] |  |  | < 10 nM | 100 to 500 nM | 
9 | C[C@@H](COC[C@@H](F)C(=O)N1CCN2c3ncc(C(F)(F)F)cc3C=C[C@@H]2C1)Nc1cn[nH]c(=O)c1C(F)(F)F [Compound 73] |  |  | < 10 nM | < 100 nM | 
10 | C[C@@H](COCCC(=O)N1CCN2c3ncc(C(F)(F)F)cc3N(C3CC3)C(=O)[C@@H]2C1)Nc1cn[nH]c(=O)c1C(F)(F)F [Compound 30, (s)-5-cyclopropyl-8-(3-((S)-2-((6-oxo-5-(trifluoromethyl)-1,6-dihydropyridazin-4-yl)amino)propoxy)propionyl)-3-(trifluoromethyl)-7,8,9,10-tetrahydro-5H-pyrazino[1,2-a]pyrido[3,2-e]pyrazin-6(6aH)-one] |  |  | < 10 nM | 100 to 500 nM | 
11 | C[C@H](COCCC(=O)N1CCN2c3ncc(C(F)(F)F)cc3NCC[C@H]2C1)Nc1cn[nH]c(=O)c1C(F)(F)F (stereo in doubt) [Compound 36, 5-(((R)-1-(3-oxo-3-((S)-3-(trifluoromethyl)-6,7,7a, 8,10,11-hexahydropyrazino[1,2-d]pyrido[3,2-b][1,4]diazepine-9(5H)-yl)propoxy)prop-2-yl)amino)-4-(trifluoromethyl)pyridazin-3(2H)-one] |  |  | < 10 nM | 500 to 5000 nM | 
12 | C[C@@H](COCCC(=O)N1CCN2c3ncc(C(F)(F)F)c(C#N)c3OC[C@H]2C1)Nc1cn[nH]c(=O)c1C(F)(F)F [Compound 51, (R)-8-(3-((S)-2-((6-oxo-5-(trifluoromethyl)-1,6-dihydropyridazin-4-yl)amino)propoxy)propionyl)-3-(trifluoromethyl)-6,6a, 7,8,9, 10-hexahydropyrazino[1,2-d]pyrido[3,2-b][1, 4]oxazinane-4-carbonitrile] |  |  | < 10 nM | 100 to 500 nM | 
13 | C[C@@H](COCCC(=O)N1CCN2c3ncc(C(F)(F)F)cc3CN(C)C[C@H]2C1)Nc1cn[nH]c(=O)c1C(F)(F)F [Compound 23, 5-(((S)-1-(3-((S)-6-methyl-3-(trifluoromethyl)-6,7,7a, 8,10,11-octahydropyrazino[1,2-a]pyrido[3,2-f][1,4]Diazepin-9(5H)-yl)-3-propoxy)prop-2-yl)amino)-4-(trifluoromethyl) pyridazin-3(2H)-one] |  |  | < 10 nM | 100 to 500 nM | 
14 | C[C@@H](COCCC(=O)N1CCN2c3ncc(C(F)(F)F)nc3OC[C@H]2C1)Nc1cn[nH]c(=O)c1C(F)(F)F [Compound 14] |  |  | < 10 nM | 100 to 500 nM | 
15 | C[C@@H](COCCC(=O)N1CCN2c3ncc(C(F)(F)F)cc3CCC2C1)Nc1cn[nH]c(=O)c1C(F)(F)F (stereo partly drawn) [Compound 32] |  |  | < 10 nM | < 100 nM | 
16 | C[C@@H](COCCC(=O)N1CCN2c3ncc(C(F)(F)F)cc3CN(C#N)C[C@H]2C1)Nc1cn[nH]c(=O)c1C(F)(F)F [Compound 11] |  |  | < 10 nM | 500 to 5000 nM | 
17 | C[C@@H](COCCC(=O)N1CCN2c3ncc(C(F)(F)F)cc3CS(=O)(=O)C[C@H]2C1)Nc1cn[nH]c(=O)c1C(F)(F)F [Compound 22] |  |  | < 10 nM | 500 to 5000 nM | 
18 | C[C@@H](COCCC(=O)N1CCN2C(=O)c3ncc(C(F)(F)F)cc3OC[C@@H]2C1)Nc1cn[nH]c(=O)c1C(F)(F)F [Compound 17, (S)-8-(3-((S)-2-((6-oxo-5-(trifluoromethyl)-1,6-dihydropyridazin-4-yl)amino)propoxy)propionyl)-3-(trifluoromethyl)-6,6a, 7,8,9,10-hexahydro-12H-pyrazino[2,1-c]pyrido[2,3-f][1,4]oxazepin-12-one] |  |  | 10 to 100 nM | > 5000 nM | 
19 | C[C@@H](COCCC(=O)N1CCN2c3ncc(C(F)(F)F)cc3C=C[C@H]2C1)Nc1cn[nH]c(=O)c1C(F)(F)F [Compound 60] |  |  | < 10 nM |  | < 100 nM
20 | C[C@@H](COCCC(=O)N1CCN2c3ncc(C(F)(F)F)nc3N(C)C(=O)[C@@H]2C1)Nc1cn[nH]c(=O)c1C(F)(F)F [Compound 58, (S)-5-methyl-8-(3-((S)-2-((6-oxo-5-(trifluoromethyl)-1,6-dihydropyridazin-4-yl)amino)propoxy)propionyl)-3-(trifluoromethyl)-7,8,9, 10-tetrahydro-5H-bipyrazino[1,2-a:2′, 3′-e]pyrazin-6(6aH)-one] |  |  | < 10 nM | < 100 nM | 
21 | C[C@@H](COCCC(=O)N1CCN2c3ncc(C(F)(F)F)cc3CC[C@@H]2C1)Nc1cn[nH]c(=O)c1C(F)(F)F (single isomer, unassigned) [Compound 46] |  |  | < 10 nM | 100 to 500 nM | 
